Where “and” joins values, the source holds several entries; their conditions need not be identical. Equal values may be shown once. Ends that are not written are not given here.
Key:
TM2 envelope peptide = assay: Seroconversion ELISA after the virulence test, TM2 peptide; type: in vivo, cats; conditions: for Binding of the sera to TM2, 3 weeks after the virulence test / Binding of the sera to TM2, 4 weeks after the virulence test / Binding of the sera to TM2, 5 weeks after the virulence test: ELISA, seral dilution 1/25, individual cats; for response against the TM2 peptide: at 4 weeks after the test
Method: The cats are subjected to a virulence test, one week after the final immunization, by means of an intraperitoneal inoculation of 10 CID50 of FIV Wo isolate, one CID50 corresponding to the dose capable of infecting 50% of the cats.
(§1) The production on of antibodies is evaluated before the test by means of an ELISA using an immobilized peptide (SU2, SU5, TM2 or TM3-19) and immunoprecipitation. After the test, the seroconversion is monitored by an ELISA using immobilized envelope peptides and a recombinant FTV capsid protein.
(§2) The ELISA with the immobilized envelope peptides corresponding to the immunogenic domains SU2 and TM2 and with the immobilized recombinant p25 protein (FIV capsid protein) is carried out as described in Avraméas A. et al. (Res. Virol., 1993, 144, 209-218).
(§3) Microplates (Immunolon II, Dynatech) are coated with 0.5 μg/well for the peptides and with 0.1 μg/well for the p25 protein.
(§4) The tests are carried out in duplicate and the results are expressed as average values.
After the test, the seroconversion against the envelope peptides and the p25 protein is evaluated at serum dilutions of 1/25 and 1/100, respectively.
The absorbance values (at 405 nm) are corrected by subtraction of the absorbance values obtained by binding with an immobilized control peptide.
The tests are normalized with reference to the binding of a mixture of serum from cats infected with FIV with a peptide representing the immunodominant domain of the FIV transmembrane glycoprotein (TM2) (Avraméas A. et al., Res. Virol., 1993, 144, 209-218).

FIV Wo = assay: Test of reduction of viral infectivity in mitogen-activated feline PBM cells; type: cell-based; conditions: PBMC cells activated with a mitogen; serum dilution 1/5
Method: For the test of reduction of the viral infectivity, serial dilutions ( 1/50, 1/100, 1/200 and 1/400) of a stock suspension of Wo isolate and a single dilution of serum (⅕) are prepared in a complete RPMI medium containing 50 μM of 2-ME and 10 mM of HEPES.
The feline serum is mixed with an equal volume of the serial dilutions of virus and incubated in a final volume of 100 μl for one hour at 37° C.
The concentration of PBM cells activated with a mitogen is adjusted to 4×10^6/ ml in a complete RPMI medium comprising 2-ME, HEPES and 200 U/ml of recombinant human IL-2. 0.1 ml of cell suspension (4×10^5 cells) is added to the tubes.
After incubation overnight, the viral inoculum is recovered by washing the cells twice with 0.5 ml of complete RPMI medium.
The cells are then resuspended fin 0.2 ml of feline serum diluted in a complete RDMI medium comprising 2-ME, HEPES and 100 U/ml of IL-2, and then transferred into the wells of 96-well microtitration plates.
Half of the medium is replaced four days after the infection.
10 μl aliquots are recovered 7 days after the infection, for an analysis of the reverse transcriptase activity.
Given that the Wo strain was not adapted by passage on CrFK cells, the influence of the antibodies was studied on the infection in feline PBMC cells.

FIV Petaluma strain = assay: Neutralization of infection of CrFK cells by sera of immunized cats; type: cell-based; conditions: for neutralizing antibodies in sera of immunized cats: CrFK cell line
Method: The detection of antibodies neutralizing the infection of the CrFKs with the FIV Petaluma strain is carried out as described previously (Richardson J. et al., J. Gen. Virol., 1996, 77, 759-771).
To evaluate the function of the antibodies, the feline sera directed against the SU2 peptide are tested for their neutralizing value with respect to the infection of CrFK cells with the FIV Petaluma strain.

[1] = system: immobilized peptide (SU2, SU5, TM2 or TM3-19); assay: ELISA anti-peptide titre during the immunization of cats; type: in vivo; conditions: individual cats immunized with KLH-coupled peptide; absorbance at 405 nm greater than 0.1
Method: Groups of four cats 4½ months old are immunized subcutaneously with 120 μg of FIV peptide (approximately 250 μg of peptide coupled to KLH (keyhole limpet haemocyanin)), emulsified in complete Freund's adjuvant.
Four repeat immunizations are administered subcutaneously in an incomplete Freund's adjuvant, generally at intervals of 2-3 weeks, although the interval between the last 2 […] was 7 weeks.
as §1, §2, §3, §4
The anti-peptide titres before the test are expressed as the logarithm of the inverse of the last dilution of serum which gives an absorbance (at 405 nm) of greater than 0.1.

CD4+ T lymphocytes = assay: Counting of circulating CD4+ T lymphocytes by flow cytometry; type: in vivo, cats; conditions: acute infection with FIV Wo, FIG. 2
Method: Counting of the CD4^+ T lymphocytes is carried out at regular intervals before the test, on the day of the test and at regular intervals during the acute infection.
The CD4^+ T lymphocytes are counted by flow cytometry, using monoclonal antibodies (Clinisciences).
To evaluate the effect of the immunization on the pathology associated with a primary infection, circulating CD4^+ lymphocytes are counted before and after the test with the FIV Wo strain.

Row | Substance | Binding of the sera to TM2, 3 weeks after the virulence test (TM2 envelope peptide) | Binding of the sera to TM2, 4 weeks after the virulence test (TM2 envelope peptide) | Binding of the sera to TM2, 5 weeks after the virulence test (TM2 envelope peptide) | response against the TM2 peptide (TM2 envelope peptide) | effect of sera on infection with FIV Wo (reduction of infectivity) (FIV Wo) | neutralizing antibodies in sera of immunized cats (FIV Petaluma strain) | Anti-peptide titre, 1st injection [1] | Anti-peptide titre, 2nd injection [1] | Anti-peptide titre, Day of the test [1] | number of CD4+ lymphocytes after the infection (CD4+ T lymphocytes) | final dilution of serum which reduces the infection by at least 50% (FIV Petaluma strain; cat 327, CrFK cells)
1 | KKGLQQLQEWEDWVGWIGN [TM3-19, 19-amino-acid fragment of the TM3 domain of the FIV Wo Env transmembrane glycoprotein (759-777)] | 0 optical density (3×) and 1.2 optical density | 0.1 optical density and 2.4 optical density and 0 optical density and 0.5 optical density | 1.9 optical density and 2.5 optical density and 0 optical density and 2.3 optical density | all but one (347) of the cats immunized with the TM3-19 peptide show a weak or undetectable response | do not modify the infection | do not neutralize | 4.71 logarithm of the inverse of the last dilution of serum and 5.01 logarithm of the inverse of the last dilution of serum and 5.31 logarithm of the inverse of the last dilution of serum | 4.71 logarithm of the inverse of the last dilution of serum and 5.31 logarithm of the inverse of the last dilution of serum and 5.01 logarithm of the inverse of the last dilution of serum and 3.20 logarithm of the inverse of the last dilution of serum | 4.40 logarithm of the inverse of the last dilution of serum (3×) and 4.71 logarithm of the inverse of the last dilution of serum | does not show a large decrease | –
2 | SU2: peptide of the SU2 domain of the FIV surface envelope glycoprotein, SEQ ID NO: 2, used as immunogen (RAISSWKQRNRWEWRPD) | 0 optical density | 1.3 optical density and 2.2 optical density and 2.1 optical density and 1.4 optical density | 2.1 optical density (2×) and 2.3 optical density and 2.5 optical density | developed a large response | do not modify the infection | Only one cat (327) immunized with the SU2 peptide develops neutralizing antibodies | 4.40 logarithm of the inverse of the last dilution of serum and 5.31 logarithm of the inverse of the last dilution of serum and 4.71 logarithm of the inverse of the last dilution of serum and 5.01 logarithm of the inverse of the last dilution of serum | 4.71 logarithm of the inverse of the last dilution of serum and 5.01 logarithm of the inverse of the last dilution of serum (2×) and 5.31 logarithm of the inverse of the last dilution of serum | 5.31 logarithm of the inverse of the last dilution of serum and 4.71 logarithm of the inverse of the last dilution of serum and 5.61 logarithm of the inverse of the last dilution of serum and 5.01 logarithm of the inverse of the last dilution of serum | gradual reduction | 1/160

Reference: patent US6391304B1, “Peptides derived from the ENV gene of the feline immunodeficiency virus and their applications” (Centre National de la Recherche Scientifique, priority 1997, dated 2002)
